Reference: patent US20240215577A1, “FUNGICIDAL PYRIDONES” (FMC Corporation, priority 2021, published 2024)

Columns and labels:
Format in all cases: in vivo
Conditions in all cases: 100 = 100% disease control, 0 = no control
[1] = tested on: Zymoseptoria tritici; assay: Test A: wheat leaf blotch, preventive spray on wheat seedlings
Excerpt: (§1) General protocol for preparing test suspensions for Tests A-F: the test compounds were first dissolved in acetone in an amount equal to 3% of the final volume and then suspended at the desired concentration (in ppm) in acetone and purified water (50/50 mix by volume) containing 250 ppm of the surfactant PEG400 (polyhydric alcohol esters). The resulting test suspensions were then used in Tests A-F.
The test solution was sprayed to the point of run-off on wheat seedlings. The following day the seedlings were inoculated with a spore suspension of Zymoseptoria tritici (the causal agent of wheat leaf blotch) and incubated in a saturated atmosphere at 24° C. for 48 h, and then moved to a growth chamber at 20° C. for 17 days, after which time disease ratings were made.
(§2) A rating of 100 indicates 100% disease control and a rating of 0 indicates no disease control (relative to the controls). A dash (-) indicates the compound was not tested.

[2] = tested on: Puccinia recondita f. sp. tritici; assay: Test B: wheat leaf rust, preventive spray on wheat seedlings
Excerpt: as §1
The test solution was sprayed to the point of run-off on wheat seedlings. The following day the seedlings were inoculated with a spore suspension of Puccinia recondita f. sp. tritici (the causal agent of wheat leaf rust) and incubated in a saturated atmosphere at 20° C. for 24 h, and then moved to a growth chamber at 20° C. for 7 days, after which time visual disease ratings were made.
as §2

[3] = tested on: Blumeria graminis f. sp. tritici; assay: Test C: wheat powdery mildew, preventive spray on wheat seedlings
Excerpt: as §1
The test suspension was sprayed to the point of run-off on wheat seedlings. The following day the seedlings were inoculated with a spore dust of Blumeria graminis f. sp. tritici, (also known as Eysiphe graminis f. sp. tritici, the causal agent of wheat powdery mildew) and incubated in a growth chamber at 20° C. for 8 days, after which time visual disease ratings were made.
as §2

[4] = tested on: Phakopsora pachyrhizi; assay: Test D: Asian soybean rust, preventive spray on soybean seedlings
Excerpt: as §1
The test solution was sprayed to the point of run-off on soybean seedlings. The following day the seedlings were inoculated with a spore suspension of Phakopsora pachyrhizi (the causal agent of Asian soybean rust) and incubated in a saturated atmosphere at 22° C. for 24 h and then moved to a growth chamber at 22° C. for 8 days, after which time visual disease ratings were made.
as §2

[5] = tested on: Botrytis cinerea; assay: Test E: tomato Botrytis, preventive spray on tomato seedlings
Excerpt: as §1
The test suspension was sprayed to the point of run-off on tomato seedlings. The following day the seedlings were inoculated with a spore suspension of Botrytis cinerea (the causal agent of tomato Botrytis) and incubated in a saturated atmosphere at 20° C. for 48 h, and then moved to a growth chamber at 24° C. for 3 days, after which time visual disease ratings were made.
as §2

[6] = tested on: Alternaria solani; assay: Test F: tomato early blight, preventive spray on tomato seedlings
Excerpt: as §1
The test suspension was sprayed to the point of run-off on tomato seedlings. The following day the seedlings were inoculated with a spore suspension of Alternaria solani (the causal agent of tomato early blight) and incubated in a saturated atmosphere at 27° C. for 48 h, and then moved to a growth chamber at 20° C. for 3 days, after which time visual disease ratings were made.
as §2

| Structure (SMILES) | Test A disease control rating ([1]; 50 ppm) [%] | Test B disease control rating ([2]; 50 ppm) [%] | Test C disease control rating ([3]; 50 ppm) [%] | Test D disease control rating ([4]; 50 ppm) [%] | Test E disease control rating ([5]; 50 ppm) [%] | Test F disease control rating ([6]; 50 ppm) [%] | further results |
| --- | --- | --- | --- | --- | --- | --- | --- |
| Cn1cc(-c2cc(F)ccc2Cl)c(-c2ccc(F)cc2F)c(Cl)c1=O [Compound 40] | 100 | 100 | 98 | 92 | 94 | 99 |  |
| Cn1cc(-c2ccc(F)cc2F)c(-c2ccc(F)cc2F)c(Cl)c1=O [Compound 41] | 100 | 96 | 96 | 69 | 91 | 91 |  |
| Cn1cc(-c2ccc(F)cc2Cl)c(-c2ccc(F)cc2F)c(Cl)c1=O [Compound 42] | 100 | 99 | 93 | 73 | 94 | 93 |  |
| COc1ccc(Cl)c(-c2cn(C)c(=O)c(C)c2-c2ccc(F)cc2Cl)c1 [Compound 43, 4-(2-chloro-4-fluorophenyl)-5-(2-chloro-5-methoxyphenyl)-1,3-dimethyl-2(1H)-pyridinone] |  |  |  |  |  |  | pest or weed control at 50 ppm ([1]; Zymoseptoria tritici, 50 ppm, read-out: Test A disease control rating): 100%; pest or weed control at 50 ppm ([2]; Puccinia recondita, 50 ppm, read-out: Test B disease control rating): 100%; pest or weed control at 50 ppm ([3]; Blumeria graminis, 50 ppm, read-out: Test C disease control rating): 100%; pest or weed control at 50 ppm ([4]; Phakopsora pachyrhizi, 216 h, 50 ppm, read-out: Test D disease control rating): 97%; pest or weed control at 50 ppm ([5]; Botrytis cinerea, 50 ppm, read-out: Test E disease control rating): 98%; pest or weed control at 50 ppm ([6]; Alternaria solani, 50 ppm, read-out: Test F disease control rating): 100% |
| Cn1c(Cl)c(-c2ccc(F)cc2Cl)c(-c2c(F)cccc2F)c(Cl)c1=O [Compound 44] | 98 | 93 | 79 | 96 | 40 | 0 |  |
| CCOn1cc(-c2cc(OC)cc(OC)c2)c(-c2ccc(F)cc2Cl)c(Cl)c1=O [Compound 45] |  |  |  |  |  |  | Test A disease control rating ([1]; 250 ppm): 100%; Test B disease control rating ([2]; 250 ppm): 91%; Test C disease control rating ([3]; 250 ppm): 72%; Test D disease control rating ([4]; 250 ppm): 0%; Test E disease control rating ([5]; 250 ppm): 97%; Test F disease control rating ([6]; 250 ppm): 0% |
| CCOn1cc(-c2cc(OC)cc(OC)c2Cl)c(-c2ccc(F)cc2Cl)c(Cl)c1=O [Compound 46] |  |  |  |  |  |  | Test A disease control rating ([1]; 250 ppm): 99%; Test B disease control rating ([2]; 250 ppm): 100%; Test C disease control rating ([3]; 250 ppm): 92%; Test D disease control rating ([4]; 250 ppm): 99%; Test E disease control rating ([5]; 250 ppm): 88%; Test F disease control rating ([6]; 250 ppm): 47% |
| CCc1c(-c2ccc(F)cc2Cl)c(-c2cc(OC)ccc2Cl)cn(C)c1=O [Compound 47] | 81 | 100 | 99 | 51 | 91 | 99 |  |
| Cn1cc(-c2ccccc2Cl)c(-c2ccc(F)cc2F)c(Cl)c1=O [Compound 48] | 99 | 99 | 72 | 77 | 96 | 96 |  |
| COc1ccc(F)c(-c2cn(C)c(=O)c(Cl)c2-c2ccc(F)cc2F)c1 [Compound 49] | 100 | 100 | 0 | 73 | 96 | 100 |  |
| CCOc1ccc(Cl)c(-c2cn(C)c(=O)c(Cl)c2-c2ccc(F)cc2F)c1 [Compound 52] | 100 | 100 | 91 | 81 | 99 | 99 |  |
| COc1cc(OC)cc(-c2cn(C)c(=O)cc2-c2ccc(F)cc2Cl)c1 [Compound 53, 4-(2-chloro-4-fluorophenyl)-5-(3,5-dimethoxyphenyl)-1-methyl-2(1H)-pyridinone] |  |  |  |  |  |  | pest or weed control at 250 ppm ([1]; Zymoseptoria tritici, 250 ppm, read-out: Test A disease control rating): 100%; pest or weed control at 250 ppm ([2]; Puccinia recondita, 250 ppm, read-out: Test B disease control rating): 97%; pest or weed control at 250 ppm ([3]; Blumeria graminis, 250 ppm, read-out: Test C disease control rating): 56%; pest or weed control at 250 ppm ([4]; Phakopsora pachyrhizi, 216 h, 250 ppm, read-out: Test D disease control rating): 59%; pest or weed control at 250 ppm ([5]; Botrytis cinerea, 250 ppm, read-out: Test E disease control rating): 99%; pest or weed control at 250 ppm ([6]; Alternaria solani, 250 ppm, read-out: Test F disease control rating): 0% |
| Cc1c(-c2cn(C)c(=O)c(Cl)c2-c2ccc(F)cc2Cl)cccc1[N+](=O)[O-] [Compound 54] | 100 | 99 | 0 | 75 | 92 | 26 |  |
| Cn1cc(-c2sccc2Cl)c(-c2ccc(F)cc2Cl)c(Cl)c1=O [Compound 55] | 96 | 90 | 0 | 0 | 97 | 0 |  |
| COc1ccc(Cl)c(-c2cn(C)c(=O)c(Cl)c2-c2ccc(C#N)cc2Cl)c1 [Compound 56] | 100 | 100 | 98 | 97 | 96 | 99 |  |
| COc1ccc(Cl)c(-c2cn(C)c(=O)c(Cl)c2-c2ccccc2C(F)(F)F)c1 [Compound 57] | 98 | 99 | 64 | 44 | 90 | 0 |  |
| COc1ccc(Cl)c(-c2cn(C)c(=O)cc2-c2ccc(Br)cc2Cl)c1 [Compound 58] | 98 | 55 | 0 | 0 | 90 | 0 |  |
